Reference: US6900191B1, “1α-Hydroxyvitamin D5, its synthesis and use in cancer prevention” (OncQuest, Inc., priority 1997, dated 2005)
“Also recorded” adds a separate entry of the source.

Experiments:
[1] = Calcemic activity: plasma calcium levels in vitamin D-deficient rats; type: in vivo, rat; conditions: for increase in plasma calcium over vehicle-treated control group: 0.042 μg/kg per day; for increase in plasma calcium level compared with vehicle-treated rats: higher concentration, 0.25 μg/kg per day; for Plasma calcium: vitamin D-deficient rats, means +/− standard deviation
Experimental: Three-week-old Sprangue-Dawley male rats were obtained from the Holtzman Laboratory, Madison, Wis. Up to three rats were housed together in a polycarbonate cage. The animal cages were kept under yellow light. The rats (eight to 10 per group per concentration of both vitamin D analogues used) were fed a vitamin D-free diet containing 0.47 g/100 g calcium and 0.3 g/100 g phosphorus. After the rats had consumed this diet for 3 weeks, their plasma calcium levels were measured. […] Such rats were administered appropriate vitamin D analogues intragastrically for 14 days. At the end of this period, the plasma calcium levels were again measured. • 3. Induction Of Preneoplastic Lesions In Mammary Glands And Their Prevention By Vitamin D3 and D5 Analogues

[2] = system: 7,12-dimethylbenz[a]anthracene-induced lesions in BALB/c mouse mammary glands; test: DMBA-induced mammary lesions in mouse mammary gland organ culture; type: cell-based; conditions: for number of glands exhibiting lesions / lesion formation, dependence on concentration: 0.01 μM to 10.0 μM; for No. of glands with lesions/total No. of glands treated: 10 days in culture; for % incidence of lesions: control 60.0
Experimental: Young, virgin BALB/c female mice, 3-4 weeks of age, were obtained from Charles River Laboratories, Wilmington, Mass. The mice were pretreated for 9 days with 17β-estradiol (1 μg in 0.1 mL saline per animal) and progesterone (1 mg in 0.1 mL saline per animal). They were then killed by cervical dislocation, and the thoracic pair of mammary glands was dissected out on silk rafts and incubated for 10 days in Waymouth MB752 medium (Life Technologies, Inc. [GIBCO BRL], Gauthersburg, Md.) containing the following growth-promoting hormones: insulin (5 μg/mL), prolactin (5 μg/mL), aldosterone (1 μg/mL), and hydrocortisone (1 μg/mL).
The carcinogen 7,12-dimethylbenz [a] anthracene (DMBA) at a dose of 2 μg/mL was added to the medium on day 3 for 24 hours to induce mammary lesions. The DMBA-containing medium was then removed, and the mammary glands were incubated for an additional 14 days with medium containing only insulin. […] These structures were termed “mammary lesions.”
The vitamin D analogues (ranging in concentration from 0.01 μM to 10.0 μM) were included in the medium during the first 10 days of the in vitro culture to determine if they lowered the incidence of mammary lesion formation. Throughout the culture period, the glands were maintained at 37° C. in an environment of 95% air and 5% CO2. At the end of the culture period, the glands were fixed in formalin, stained in alum-carmine solution, and evaluated for the presence or absence of mammary lesions. All hormones and chemicals were purchased from the Sigma Chemical Co., St. Louis, Mo. • 4. Immunohistochemistry Of VDRs And TGF-β1
To evaluate the efficacy of the newly synthesized vitamin D5 analogue in preventing mammary lesion formation, we incubated 15 mammary glands per group (135 glands in total) from BALB/c mice with appropriate hormones and exposed the glands to DMBA on day 3 for 24 hours (see “Experimental Equipment and Methods” section). The mammary glands were incubated for 10 days with the vitamin D analogues in concentrations ranging from 0.01 μM to 10.0 μM. The incidence of mammary lesions was calculated for each group and was reported as the ratio of the number of mammary glands showing lesions to the total number of mammary glands at risk.

mammary glands = test: Toxic effects and structural differentiation of mammary glands in organ culture; type: cell-based, mouse; conditions: for toxicity to the glands, overall: 0.1 μM or 1.0 μM tested; for toxicity to mammary glands, gland structure: 3 days
Experimental: (§1) Normal mouse mammary glands were dissected and incubated with growth-promoting hormones either alone or in the presence of vitamin D analogues for only 3 days. In this experiment, the glands were not exposed to DMBA (see protocol described in the previous section). Instead, the glands were fixed in buffered formalin, and 5-μm-thick sections were prepared for histopathologic evaluations. The sections were mounted on adhesive-coated slides (Superfast: Fisher Scientific Co., Itasca, Ill.), dried at 60° C. for 1 hour, deparaffinized in xylene, […] in a series of alcohol, and finally washed with phosphate-buffered saline (PBS).
To determine the effects of vitamin D analogues on the structural differentiation as well as their toxic effects on mammary glands, we incubated mammary glands with growth-promoting hormones for 3 days either alone or in the presence of 0.1 μM or 1.0 μM vitamin D analogues. The control mammary gland structure was represented by normal alveolar and ductal structures.

VDR = test: Immunohistochemistry of VDRs in normal mouse mammary glands; type: cell-based; conditions: 3 days
Experimental: as §1
(§2) To block the nonspecific antibody reactions, we treated the tissue sections with 5% dried skim milk for 10 minutes and then incubated them with primary mouse antibody (either against VDR or against TGF-β1, both obtained from BioGenex Laboratories, San Ramon, Calif.) overnight at 0-4° C. […]
(§3) The tissues were counterstained with hematoxylin-eosin, dehydrated through graded series of alcohol and xylene, and finally mounted in Permount (Fisher Scientific Co.). Slides were evaluated for the presence or absence of the VDR or TGF-β1 and for the intensity of staining in the positively strained samples. • 5. […]

ZR 75 = test: Growth of human breast cancer cell line; type: cell-based
T47D = test: Growth of human breast cancer cell line; type: cell-based
MCF1Oneo = test: Growth of human breast cancer cell line; type: cell-based
MCF-7 = test: Growth of human breast cancer cell line; type: cell-based
BCA-4 = test: Growth of human breast cancer cell line; type: cell-based
breast cancer cells [3] = test: Growth of analogue-differentiated breast cancer cells transplanted in athymic mice; type: in vivo, mouse; conditions: cells differentiated with the analogue before transplantation
breast cancer cells [4] = test: Growth of breast cancer cells in athymic mice injected with the analogue; type: in vivo, mouse; conditions: injection of 8 mg, 3 × week/2 months, athymic mice bearing breast cancer cells
[5] = Stability studies on storage; type: physicochemical; conditions: 20° C.
TGF-β1 = test: Immunohistochemistry of TGF-β1 in normal mouse mammary glands; type: cell-based; conditions: 1.0 μM, 3 days
Experimental: as §1, §2, §3

[6] = system: HL-60 human leukemia cells; conditions: cited from earlier work
[7] = 0.042 μg/kg/day intragastrically for 14 days
[8] = 0.25 μg/kg/day intragastrically for 14 days

C=C1/C(=C\C=C2/CCC[C@]3(C)[C@@H]([C@H](C)CC[C@@H](CC)C(C)C)CC[C@@H]23)C[C@@H](O)C[C@@H]1O [1α(OH)D5, 1α-Hydroxyvitamin D5]
increase in plasma calcium over vehicle-treated control group [1]: 11% | increase in plasma calcium level compared with vehicle-treated rats [1]: 50% | calcemic effects compared with 1α,25(OH)2D3 ([1]; overall, both doses): overall lower calcemic effects; also recorded: much less calcemic | Plasma calcium [1, 7]: 6.0 ± 0.63 mg/dL | Plasma calcium [1, 8]: 7.9 ± 1.5 mg/dL | number of glands exhibiting lesions / lesion formation, dependence on concentration [2]: dose-related decrease | number of glands exhibiting lesions / lesion formation, dependence on concentration ([2]; listed as vitamin D5 analogue): inhibited the lesion formation in a dose-dependent manner | No. of glands with lesions/total No. of glands treated ([2]; 0.01 μM): 6/16 | % incidence of lesions ([2]; 0.01 μM): 37.5% | No. of glands with lesions/total No. of glands treated ([2]; 0.1 μM): 4/16 | % incidence of lesions ([2]; 0.1 μM): 25.0% | No. of glands with lesions/total No. of glands treated ([2]; 1.0 μM): 2/14 | % incidence of lesions ([2]; 1.0 μM): 14.3% | percent inhibition of formation of lesions ([2]; 10.0 μM): 100% | No. of glands with lesions/total No. of glands treated ([2]; 10.0 μM): 0/15 | % incidence of lesions ([2]; 10.0 μM): 0.0% | toxicity to the glands, overall (mammary glands): did not result in any toxicity | toxicity to the glands, overall (mammary glands; listed as vitamin D5 analogue): considerably less toxic than the vitamin D3 analogue | toxicity to mammary glands, gland structure (mammary glands; 1.0 μM): retained the healthy structural characteristics | expression of VDRs (staining) in mammary epithelial cells (VDR; 0.1 μM (lower concentration)): much less | expression of VDRs (staining) in mammary epithelial cells (VDR; 1.0 μM): induced expression of VDRs | growth of cell line (ZR 75): inhibited growth | growth of cell line (T47D): inhibited growth | growth of cell line (MCF1Oneo): inhibited growth | growth of cell line (MCF-7): inhibited growth | growth of cell line (BCA-4): inhibited growth | growth of differentiated cells when transplanted in athymic mice (breast cancer cells [3]): did not grow | growth of cancer cells in the animals (breast cancer cells [4]): inhibited growth | stability in solution [5]: one month | storage stability in powder form [5]: a year

C=C1/C(=C\C=C2/CCC[C@]3(C)[C@@H]([C@H](C)CCCC(C)(C)O)CC[C@@H]23)C[C@@H](O)C[C@@H]1O [1α,25(OH)2D3, 1α,25-dihydroxyvitamin D3, reference compound]
increase in plasma calcium over vehicle-treated control group [1]: 50% | increase in plasma calcium level compared with vehicle-treated rats [1]: 87% | Plasma calcium [1, 7]: 8.1 ± 1.2 mg/dL | Plasma calcium ([1]; 0.042 μg/kg/day intragastrically for 14 days, listed as 1α, 25(OH)2D3): 8.1 ± 1.2 mg/dL | Plasma calcium [1, 8]: 10.1 ± 1.8 mg/dL | Plasma calcium ([1]; 0.25 μg/kg/day intragastrically for 14 days, listed as 1α, 25 (OH)2D3): 10.1 ± 1.8 mg/dL | No. of glands with lesions/total No. of glands treated ([2]; 0.01 μM): two of 14 | No. of glands with lesions/total No. of glands treated ([2]; 0.01 μM, listed as 1,25α-dihydroxyvitamin D3): 2/14 | % incidence of lesions ([2]; 0.01 μM): 14.3% | No. of glands with lesions/total No. of glands treated ([2]; 0.1 μM): 0/15 | % incidence of lesions ([2]; 0.1 μM): 0.0% | No. of glands with lesions/total No. of glands treated ([2]; 1.0 μM): 0/15 | % incidence of lesions ([2]; 1.0 μM): 0.0% | No. of glands with lesions/total No. of glands treated ([2]; 10.0 μM): 0/15 | % incidence of lesions ([2]; 10.0 μM): 0.0% | mammary lesions ([2]; concentrations higher than 0.01 μM): no mammary lesions were observed | toxicity to mammary glands, gland structure (mammary glands; 0.1 μM): did not show toxicity | toxicity to mammary glands, gland structure (mammary glands; 1.0 μM): disintegration of ducts and structural toxicity to the glands | concentrations toxic to the glands (mammary glands; 3 days in organ culture): ≥ 1000 nM | induction of TGF-β1 in mammary epithelial cells (TGF-β1): much reduced | stability in solution [5]: one month | storage stability in powder form [5]: a year

C=C1/C(=C/C=C2\CCC[C@]3(C)C([C@H](C)CC#CC(O)(C(F)(F)F)C(F)(F)F)=CC[C@@H]23)C[C@@H](O)C[C@@H]1O [Ro24-5531, 1α, 25-dihydroxy-16-ene-23-yne-26,27-hexafluorocholecalciferol]
expression of TGF-β1 and its type 2 receptors [6]: induced expression
